# Tested on: Mythimna separata
# Experiment: Test Example 1: efficacy on Mythimna separata (treated artificial feed)
# Assay type: in vivo
# Details: 1 μl of emulsion (I) (5% active ingredient) in 0.8 g artificial feed; second instar larvae; 25° C.; fifth day
# Text: 5 parts of the heteroaryl azole compound of the present invention, 93.6 parts of dimethylformamide, and 1.4 parts of polyoxyethylene alkyl aryl ether were mixed and dissolved to prepare emulsion (I) containing 5% of the active ingredient.
# For a control, 98.5 parts of dimethylformamide and 1.5 parts of polyoxyethylene alkyl aryl ether were mixed and dissolved to prepare emulsion (II).
# Insecticidal rate (%)=(The number of dead insects/The number of tested insects)×100
# 0.8 g of commercially available artificial feed (Insecta LFS, manufactured by Nosan Corp.) and 1 μl of the emulsion (I) were well mixed to obtain test feed.
# A plastic test container (capacity: 1.4 ml) was packed with 0.2 g of the test feed per treatment plot. Then, two second instar larvae of Mythimna separata were inoculated to each treatment plot. A plastic lid was put on the test container so as to prevent escape of the second instar larvae of Mythimna separata. The container was placed in a thermostat chamber of 25° C. On the fifth day, the insecticidal rate and the food intake were examined. The test was conducted in duplicate.
# The insecticidal rate and the food intake of a control plot were examined in the same way as in Test Example 1 except that the emulsion (I) was changed to the emulsion (II).
row,Structure (SMILES),insecticidal rate or food intake as compared with the control plot
1,CCS(=O)(=O)c1cc(-c2ncccn2)cnc1-c1ncc(C(Cl)C(F)(F)C(F)(F)F)n1C (stereo not drawn) [b-32],insecticidal rate of 100% for Mythimna separata or a food intake of 10% or less
2,CCS(=O)(=O)c1cc(C2CC2)cnc1-c1ncc(C(F)C(F)(F)C(F)(F)C(F)(F)C(F)(F)F)n1C (stereo not drawn) [b-63],insecticidal rate of 100% for Mythimna separata or a food intake of 10% or less
3,CCS(=O)(=O)c1cc(-c2ccccc2F)cnc1-c1ncc(C(F)(F)C(F)(F)C(F)(F)F)n1C [b-58],insecticidal rate of 100% for Mythimna separata or a food intake of 10% or less
4,CCS(=O)(=O)c1cc(-c2cncnc2)cnc1-c1ncc(C(F)C(F)(F)C(F)(F)F)n1C (stereo not drawn) [b-35],insecticidal rate of 100% for Mythimna separata or a food intake of 10% or less
5,CCS(=O)(=O)c1cc(-c2ncccn2)cnc1-c1ncc(C(F)C(F)(F)C(F)(F)C(F)(F)C(F)(F)F)n1C (stereo not drawn) [b-64],insecticidal rate of 100% for Mythimna separata or a food intake of 10% or less
6,CCS(=O)(=O)c1ccc(-n2cncn2)nc1-c1ncc(C(Cl)C(F)(F)C(F)(F)C(F)(F)C(F)(F)F)n1C (stereo not drawn) [b-13],insecticidal rate of 100% for Mythimna separata or a food intake of 10% or less
7,CCS(=O)(=O)c1cc(-c2ncccn2)cnc1-c1ncc(C(F)C(F)(F)C(F)(F)F)n1C (stereo not drawn) [b-24],insecticidal rate of 100% for Mythimna separata or a food intake of 10% or less
8,CCS(=O)(=O)c1cc(C(F)(F)F)cnc1-c1ncc(C(F)(F)C(F)(F)C(F)(F)F)n1C [b-15],insecticidal rate of 100% for Mythimna separata or a food intake of 10% or less
9,CCS(=O)(=O)c1cnc(N)nc1-c1ncc(C(F)(F)C(F)(F)C(F)(F)C(F)(F)F)n1C [a-8],insecticidal rate of 100% for Mythimna separata or a food intake of 10% or less
10,CCSc1cccnc1-c1ncc(C(F)(F)C(F)(F)C(F)(F)C(F)(F)F)n1C [b-2],insecticidal rate of 100% for Mythimna separata or a food intake of 10% or less
11,CCS(=O)(=O)c1cc(C2CC2)cnc1-c1ncc(C(F)C(F)(F)C(F)(F)F)n1C (stereo not drawn) [b-25],insecticidal rate of 100% for Mythimna separata or a food intake of 10% or less
12,CCS(=O)(=O)c1cc(-c2ccccn2)cnc1-c1ncc(C(Cl)C(F)(C(F)(F)F)C(F)(F)F)n1C (stereo not drawn) [b-44],insecticidal rate of 100% for Mythimna separata or a food intake of 10% or less
13,CCS(=O)(=O)c1cccnc1-c1ncc(C(F)(F)C(F)(F)C(F)(F)C(F)(F)F)n1C [b-3],insecticidal rate of 100% for Mythimna separata or a food intake of 10% or less
14,CCS(=O)(=O)c1ccc(-n2cncn2)nc1-c1ncc(C(F)(F)C(F)(F)C(F)(F)F)n1C [b-16],insecticidal rate of 100% for Mythimna separata or a food intake of 10% or less
15,CCS(=O)(=O)c1cc(-c2ccccn2)cnc1-c1ncc(C(F)C(F)(F)C(F)(F)F)n1C (stereo not drawn) [b-27],insecticidal rate of 100% for Mythimna separata or a food intake of 10% or less
16,CCS(=O)(=O)c1cc(-n2cncn2)cnc1-c1ncc(C(F)(F)C(F)(F)C(F)(F)F)n1C [b-45],insecticidal rate of 100% for Mythimna separata or a food intake of 10% or less
17,CCS(=O)(=O)c1cc(C2CC2)cnc1-c1ncc(C(F)C(F)(F)C(F)(F)C(F)(F)F)n1C (stereo not drawn) [b-18],insecticidal rate of 100% for Mythimna separata or a food intake of 10% or less
18,CCS(=O)(=O)c1cc(-c2ncccc2Cl)cnc1-c1ncc(C(F)(F)C(F)(F)C(F)(F)F)n1C [b-62],insecticidal rate of 100% for Mythimna separata or a food intake of 10% or less
19,CCS(=O)(=O)c1ccc(N)nc1-c1ncc(C(F)(F)C(F)(F)C(F)(F)C(F)(F)F)n1C [b-12],insecticidal rate of 100% for Mythimna separata or a food intake of 10% or less
20,CCS(=O)(=O)c1cc(OC(C)(C)C(F)(F)F)cnc1-c1ncc(C(F)C(F)(C(F)(F)F)C(F)(F)F)n1C (stereo not drawn) [b-69],insecticidal rate of 100% for Mythimna separata or a food intake of 10% or less
21,CCS(=O)(=O)c1cc(-c2ncccc2F)cnc1-c1ncc(C(F)(F)C(F)(F)C(F)(F)F)n1C [b-55],insecticidal rate of 100% for Mythimna separata or a food intake of 10% or less

row,Structure (SMILES),insecticidal rate or food intake as compared with the control plot
1,CCS(=O)(=O)c1cnc(OC)nc1-c1ncc(C(F)(F)C(F)(F)C(F)(F)C(F)(F)F)n1C [a-9],insecticidal rate of 100% for Mythimna separata or a food intake of 10% or less
2,CCS(=O)(=O)c1cc(-c2ccccn2)cnc1-c1ncc(C(F)C(F)(F)C(F)(F)C(F)(F)C(F)(F)F)n1C (stereo not drawn) [b-66],insecticidal rate of 100% for Mythimna separata or a food intake of 10% or less
3,CCS(=O)(=O)c1cc(C(F)(F)F)cnc1-c1ncc(C(F)(F)C(F)(F)C(F)(F)C(F)(F)F)n1C [b-7],insecticidal rate of 100% for Mythimna separata or a food intake of 10% or less
4,CCS(=O)(=O)c1cc(C2CC2)cnc1-c1ncc(C(Cl)C(F)(C(F)(F)F)C(F)(F)F)n1C (stereo not drawn) [b-53],insecticidal rate of 100% for Mythimna separata or a food intake of 10% or less
5,CCS(=O)(=O)c1cc(C2CC2)cnc1-c1ncc(C(F)(F)C(F)(F)C(F)(F)F)n1C [b-20],insecticidal rate of 100% for Mythimna separata or a food intake of 10% or less
6,CCS(=O)(=O)c1cccnc1-c1ncc(C(F)C(F)(F)C(F)(F)C(F)(F)C(F)(F)F)n1C (stereo not drawn) [b-11],insecticidal rate of 100% for Mythimna separata or a food intake of 10% or less
7,CCS(=O)(=O)c1ccc(-n2cncn2)nc1-c1ncc(C(F)(F)C(F)(F)C(F)(F)C(F)(F)F)n1C [b-8],insecticidal rate of 100% for Mythimna separata or a food intake of 10% or less
8,CCS(=O)(=O)c1ccc(-n2cncn2)nc1-c1ncc(C(F)(F)C(F)(F)F)n1C [b-17],insecticidal rate of 100% for Mythimna separata or a food intake of 10% or less
9,CCS(=O)(=O)c1cc(-c2ccccn2)cnc1-c1ncc(C(F)(F)C(F)(F)C(F)(F)C(F)(F)F)n1C [b-59],insecticidal rate of 100% for Mythimna separata or a food intake of 10% or less
10,CCS(=O)(=O)c1cc(OCC(F)(F)C(F)(F)F)cnc1-c1ncc(C(F)C(F)(C(F)(F)F)C(F)(F)F)n1C (stereo not drawn) [b-68],insecticidal rate of 100% for Mythimna separata or a food intake of 10% or less
11,CCS(=O)(=O)c1ccc(-n2cncn2)nc1-c1ncc(C(F)C(F)(F)C(F)(F)C(F)(F)C(F)(F)F)n1C (stereo not drawn) [b-10],insecticidal rate of 100% for Mythimna separata or a food intake of 10% or less
12,CCS(=O)(=O)c1cc(-c2ccccn2)cnc1-c1ncc(C(F)(F)C(F)(F)C(F)(F)F)n1C [b-29],insecticidal rate of 100% for Mythimna separata or a food intake of 10% or less
13,CCS(=O)(=O)c1cc(C2CC2)cnc1-c1ncc(C(F)(F)C(F)(F)C(F)(F)C(F)(F)F)n1C [b-1],insecticidal rate of 100% for Mythimna separata or a food intake of 10% or less
14,CCS(=O)(=O)c1ccc(-c2ncccn2)nc1-c1ncc(C(F)(F)C(F)(F)C(F)(F)C(F)(F)F)n1C [b-9],insecticidal rate of 100% for Mythimna separata or a food intake of 10% or less
15,CCS(=O)(=O)c1cc(C2CC2)cnc1-c1ncc(C(F)(F)C(F)(F)F)n1C [b-26],insecticidal rate of 100% for Mythimna separata or a food intake of 10% or less
16,CCS(=O)(=O)c1cc(-c2ncccn2)cnc1-c1ncc(C(F)(F)C(F)(F)F)n1C [b-22],insecticidal rate of 100% for Mythimna separata or a food intake of 10% or less
17,CCS(=O)(=O)c1cc(C(C)(C)C#N)cnc1-c1ncc(C(F)(F)C(F)(F)C(F)(F)F)n1C [b-42],insecticidal rate of 100% for Mythimna separata or a food intake of 10% or less
18,CCS(=O)(=O)c1cc(-c2cc(F)cc(F)c2)cnc1-c1ncc(C(F)(F)C(F)(F)C(F)(F)F)n1C [b-60],insecticidal rate of 100% for Mythimna separata or a food intake of 10% or less
19,CCS(=O)(=O)c1cc(-c2ncccc2F)cnc1-c1ncc(C(F)(F)C(F)(F)C(F)(F)C(F)(F)F)n1C [b-61],insecticidal rate of 100% for Mythimna separata or a food intake of 10% or less
20,CCS(=O)(=O)c1cc(C2(c3ccccn3)CC2)cnc1-c1ncc(C(F)C(F)(C(F)(F)F)C(F)(F)F)n1C (stereo not drawn) [b-57],insecticidal rate of 100% for Mythimna separata or a food intake of 10% or less
21,CCS(=O)(=O)c1cc(-c2ncccc2C#N)cnc1-c1ncc(C(F)(F)C(F)(F)C(F)(F)F)n1C [b-54],insecticidal rate of 100% for Mythimna separata or a food intake of 10% or less

# From patent US20210380556A1, “HETEROARYLAZOLE COMPOUND AND PEST CONTROL AGENT” (Nippon Soda Co., Ltd., priority 2018, published 2021)
